# Assays:
# [1] = Observed plasma and CSF vancomycin levels (QMS immunoassay); type: in vivo, preterm infants; conditions: median (range)
# Text: CSF WCC, microbiological CSF culture results, CSF protein levels, IV vancomycin and intraventricular vancomycin doses administered, all available CSF vancomycin levels and serum vancomycin levels, dates and times of IV vancomycin doses, intraventricular vancomycin doses, serum and CSF vancomycin levels.
# CSF samples for vancomycin levels were taken when the ventricular access device was accessed for routine CSF drainage, as needed for clinical management of hydrocephalus, for the individual baby. Due to this routine practice, the CSF vancomycin levels were taken at random time points. Repeat intraventricular vancomycin dose was administered if the level dropped under the threshold of 10mg/L. The target CSF vancomycin concentration was at least ten times above the breakpoint of MIC for CoNS. This was chosen as these were the principal infecting organisms in the defined neonatal cohort and the study hospital's MIC breakpoint for CoNS is 1 mg/L (EUCAST MIC breakpoint, 4 mg/L) ([EUCAST, 2017]).
# The CSF vancomycin measurements were undertaken in the local microbiology laboratory, which is a national referral centre for antibiotic assays, through quantitative microsphere system (QMS® Thermo Scientific)-based immunoassay ([Thermo Scientific. QMS ® Vancomycin (VANCO), 2015]). […]
# [2] = tested on: preterm infants with neonatal ventriculitis; test: Time to CSF sterilisation versus model-predicted CSF AUC(0-24) and C average; type: in vivo; conditions: observed trend, 8 preterm infants; paper says the data is too erratic to interpret
# Text: Time to sterilisation was defined as length of time taken for CSF WCC to fall to < 20/mm^3 and simultaneously achieve sterile CSF.
# Area under the curve (AUC) predictions were generated for CSF vancomycin from the final model. We explored the relationships between AUC 0-24 and average CSF concentration (C average; defined as AUC(0-t)/t; t = time) and time to sterilisation of CSF.
# [3] = tested on: Staphylococcal epidermidis; conditions: adult CSF samples, MIC 2mg/L; ref Nagl et al., 1999; cited from earlier work
# Experimental: (§1) Staphylococci species are the predominant causative organisms in neonatal ventriculitis ([Adams-Chapman et al., 2008]; [Parasuraman et al., 2018]). […] However, IV vancomycin is only able to achieve CSF vancomycin concentrations of 1.1-6mg/L, across the adult and the neonatal population ([Li et al., 2015]; [Beach et a ...
# Staphylococcus aureus = conditions: adult CSF samples, MIC 2mg/L; ref Nagl et al., 1999; cited from earlier work
# Experimental: as §1
# [4] = cited from earlier work
# Text: Staphylococci species are the predominant causative organisms in neonatal ventriculitis ([Adams-Chapman et al., 2008]; [Parasuraman et al., 2018]). […] A more recent work by Li et al highlighted that the disturbance of the blood brain barrier was important in transfer of IV vancomycin into the ...
# [5] = cited from earlier work; remark: listed apart in the source
# Text: Staphylococci species are the predominant causative organisms in neonatal ventriculitis ([Adams-Chapman et al., 2008]; [Parasuraman et al., 2018]).
# [6] = ref Schilling et al., 2011; cited from earlier work
# Text: The CSF protein was examined as a covariate in this study as 50-55% of vancomycin is protein bound ([Schilling et al., 2011]). As the CSF protein in a preterm baby is higher than that of a term infant, we hypothesised that this may have an effect on the unbound vancomycin in the CSF ([Majumdar et al., 2013]; [De Cock et al., 2017]). However, no significant association was found between VI, CSF protein and CSF vancomycin levels. This is an important finding in the preterm population, to review current intraventricular vancomycin prescribing parameters and practice.
# [7] = with CSF vancomycin level ranging from 2.5-230.7 mg/L, preterm infants; ref Parasuraman et al., 2018; cited from earlier work
# Experimental: We have previously examined the relationship of 4 different intraventricular vancomycin doses, between 3mg to 15mg, and the CSF vancomycin concentrations, in a small cohort of preterm infants of < 28 weeks gestation ([Parasuraman et al., 2018]). In the four different dose models, the CSF vancomycin levels were adequately maintained at a level of at least ten times above the breakpoint of MIC (>10 mg/L) for coagulase-negative staphylococci (CoNS) ([Parasuraman et al., 2018]).
# [8] = cited from earlier work; remark: listed apart in the source
# [9] = Population pharmacokinetic (NLME) model of plasma vancomycin after IV dosing
# [10] = Population pharmacokinetic (NLME) model of CSF vancomycin after intraventricular dosing
# Experimental: Intraventricular vancomycin was given when the ventricular access device was accessed for the routine drainage. Intraventricular vancomycin concentration used was 10 mg/mL, in a sterile preparation, and was given as a slow bolus over 2 minutes. The intraventricular vancomycin was given at the end of the CSF drainage. The ventricular access device was flushed with 1ml of sterile NaCl 0.9% following instillation of the intraventricular vancomycin.
# Using a one-compartment modelling approach, CSF compartment was added to the plasma modelling. The CSF model equation, with the incorporated plasma model is given below: dA(p)/dt=−clp/vp×A(p)dA(csf)/dt=−clcsf/vcsf×A(csf) Where p is plasma, cl is clearance, v is volume, A is amount, csf is cerebrospinal fluid, dA(p)/dt is change in plasma concentrations with time and dA(csf)/dt is change in cerebrospinal fluid concentrations with time.
# In the first instance, parallel dosing was used, and no transfer was assumed between plasma and CSF. Mass transfer in both directions (plasma to CSF; CSF to plasma) was tested using first-order rate constants. We tested 2 covariates of VI and CSF protein, on CSF clearance and volume and CSF clearance respectively.
smiles,measurement,setting,value
CN[C@H](CC(C)C)C(=O)N[C@H]1C(=O)N[C@@H](CC(N)=O)C(=O)N[C@H]2C(=O)N[C@H]3C(=O)N[C@H](C(=O)N[C@H](C(=O)O)c4cc(O)cc(O)c4-c4cc3ccc4O)[C@H](O)c3ccc(c(Cl)c3)Oc3cc2cc(c3O[C@@H]2O[C@H](CO)[C@@H](O)[C@H](O)[C@H]2O[C@H]2C[C@](C)(N)[C@H](O)[C@H](C)O2)Oc2ccc(cc2Cl)[C@H]1O [vancomycin],CSF concentrations,"[1]; 8 preterm infants, intraventricular starting doses 3, 5, 10, 15 mg, CSF time after dose 7.39 (0.02-57.37) h, QMS immunoassay",24.9 (2.5-230.7) mg/L
same,plasma concentrations,"[1]; preterm infants on concomitant IV vancomycin 15 mg/kg starting dose, plasma time after dose 5.59 (0-14) h",8.6 (2.2-26.6) mg/L
same,time to CSF sterilisation versus CSF AUC (0-24) and C average,[2],shorter time to sterilisation with higher AUC (0-24) and C average
same,concentration of maximum microbiocidal effect,[3],5 to 10 mg/L
same,concentration of maximum microbiocidal effect,Staphylococcus aureus,5 to 10 mg/L
same,CSF concentrations achieved,"[4]; IV vancomycin regimes 2g-3.5g/day, 6 adult patients with ventriculitis, ref Beach et al., 2017",1.1 to 6 mg/L
same,mean stable vancomycin concentration in the CSF,"[4]; IV vancomycin, ref Li et al., 2015",2 mg/L
same,CSF vancomycin concentrations achieved by IV vancomycin,"[4]; across the adult and the neonatal population, ref Li et al., 2015, Beach et al., 2017, Reiter and Doron, 1996",1.1 to 6 mg/L
same,CSF vancomycin levels at 72 hours post administration,"[5]; 5mg intraventricular vancomycin starting dose, neonatal ventriculitis, ref Matsunaga et al., 2015",16.5 mg/L
same,CSF vancomycin levels maintained,"[5]; four intraventricular dose models 3mg to 15mg, preterm infants < 28 weeks gestation, at least ten times above the MIC breakpoint for CoNS, ref Parasuraman et al., 2018",> 10 mg/L
same,CSF vancomycin level range,"[5]; intraventricular vancomycin, preterm infants < 28 weeks gestation, ref Parasuraman et al., 2018",2.5 to 230.7 mg/L
same,protein bound,[6],50-55%
same,"complications, specifically renal effects and ototoxicity",[7],no confirmed complications
same,serum vancomycin concentration after intraventricular vancomycin administration,"[8]; 10mg intraventricular, ref Pfausler et al., 2003",below measurable concentration
same,vancomycin transferred from CSF into plasma,"[8]; attributed to the larger volume of plasma compared to CSF, ref Li et al., 2017",inconsequential
same,"CL, Estimate (%RSE)","[9]; plasma clearance, final one-compartment model, allometrically scaled to 70 kg, 37 plasma samples from 5 preterm infants on IV vancomycin, value (%RSE)",9.29(5.2) L/h/70 kg
same,"CL, Bootstrap median (95% CI)","[9]; plasma clearance, non-parametric bootstrap of 1000 samples",9.5 (8.7 – 10.9) L/h/70 kg
same,"V, Estimate (%RSE)","[9]; plasma volume of distribution, final one-compartment model, scaled to 70 kg, value (%RSE)",54.4(11.5) L/70 kg
same,"V, Bootstrap median (95% CI)","[9]; plasma volume of distribution, non-parametric bootstrap of 1000 samples",53.5 (47.6 – 119.8) L/70 kg
same,"CLCSF, Estimate (%RSE)","[10]; CSF clearance, final model, intraventricular vancomycin, 67 CSF samples from 8 preterm infants, value (%RSE)",0.002(12.9) L/h
same,"CLCSF, Bootstrap median (95% CI)","[10]; CSF clearance, non-parametric bootstrap of 1000 samples",0.002 (0.002 - 0.003) L/h
same,"VCSF, Estimate (%RSE)","[10]; CSF volume of distribution, final model, intraventricular vancomycin, value (%RSE)",0.109(23.8) L
same,"VCSF, Bootstrap median (95% CI)","[10]; CSF volume of distribution, non-parametric bootstrap of 1000 samples",0.11 (0.069 - 0.172) L
same,transfer between plasma and CSF,"[10]; first-order transfer rate constants tested in both directions in the model, no significant improvement in fit",did not demonstrate an appreciable transfer between plasma and CSF

# From paper PMC7848885, “Population Pharmacokinetics of Intraventricular Vancomycin in Neonatal Ventriculitis, A Preterm Pilot Study” (European Journal of Pharmaceutical Sciences, 2021)
